Data published in US20250034212A1, “PEPTIDE” (PEPTIDREAM INC., priority 2021, published 2025).
Starred links: 1 amine or outer side, 2 acyl side, 3 side chain; linkers in the order of their positions; H or OH if unused. Positions of bridges follow the written chain, without caps; N, C: chain ends. Non-standard residues stand in square brackets, D forms with d. Residues, ends and D or L forms follow the SMILES beside them. Groups on a side chain read outwards from the residue. *: point of attachment. Meglumine = CN(C[C@H](O)[C@@H](O)[C@H](O)[C@H](O)CO)*; Piperazinyl(4-CH2COOH) = O=C(O)CN1CCN(*)CC1; 1Nal = N[C@@H](Cc1cccc2ccccc12)C(=O)O; Gly(NCH2CH2Ph) = O=C(O)CNCCc1ccccc1; 4Pal = N[C@@H](Cc1ccncc1)C(=O)O; CO = O=C([*:1])[*:2]

Experiments:
recombinant human TGF-β1 [1] = biological target: T1, recombinant human TGF-β1 (Homo sapiens, UniProt P01137); assay: SPR intermolecular interaction test, TGF-β1 immobilized on CM3 sensor chip (Biacore T200); format: binding; details: Single Cycle Kinetics, human TGF-β1
T1 construct: purchased R&D systems
Procedure: In this Example, (1) the activity of binding to TGF-β for various peptides consisting of the amino acid sequences set forth in SEQ ID NOs: 2-33 synthesized in Examples 1 to 5 and 7 was evaluated. (2) The activity and selectivity of binding of the peptide consisting of the amino acid sequence set forth in SEQ ID NO: 13 synthesized in Example 2 against two isoforms of TGF-β (TGF-β1 and β2) were checked. For this purpose, the intermolecular interaction of each peptide against TGF-β was tested by surface plasmon resonance (SPR) in the method described below. Specific test methods are described below.
A CM3 sensor chip (Global Life Science Technologies Japan Co., Ltd.) was inserted into a BiacoreT200 (Global Life Science Technologies Japan Co., Ltd.). Three priming runs were performed using running buffer: HBS-EP+ (Global Life Science Technologies Japan Co., Ltd.). The system was then equilibrated at a flow rate of 30 μL/min.
Subsequently, 50 μL of 60 mM EDC solution (Global Life Science Technologies Japan Co., Ltd.) and 50 μL of 650 mM NHS solution (Global Life Science Technologies Japan Co., Ltd.) were mixed. Next, the reaction was carried out at a flow rate of 10 μL/min for 420 seconds. Then, 150 μL of 0.2 μM TGF-β solution diluted in 10 mM acetic acid solution (pH 5.0) was prepared and reacted at a flow rate of 10 μL/min for 420 seconds to immobilize TGF-β on the CM3 sensor chip. TGF-β was human-derived TGF-β1 or β2 (recombinant human TGF-β1, 2) and was obtained from R&D systems. After immobilization, capping was performed by reacting with 1.0 M ethanolamine aqueous solution (Global Life Science Technologies Japan Co., Ltd.) at a flow rate of […] for 420 seconds.
A liquid prepared by dissolving each peptide at 10 mM in DMSO solution was diluted with running buffer to prepare a peptide-dissolved solution at a final concentration of 10 μM. Subsequently, 50 nM, 25 nM, 12.5 nM, 5 nM, and 2.5 nM peptide solutions were prepared. Using the above samples, the kinetics of each peptide against TGF-β was obtained by SPR measurement.
The kinetics evaluation model was Single Cycle Kinetics, and curve fitting was performed using Biacore T200 Evaluation Software Version 3.0 (Global Life Science Technologies Japan Co., Ltd.). The binding of various peptides to TGF-β was evaluated by performing least-squares curve fitting on the obtained sensorgram to calculate the KD value.

recombinant human TGF-β1 [2] = biological target: T1, recombinant human TGF-β1; assay: SBE reporter assay in SBE reporter-HEK293 cells, TGF-β1 stimulation; format: cell-based; details: TGF-β1 0.13 nM, 18 hours; for inhibition at 62 pM: peptide 0.062 nM; for inhibition at 0.000185 µM: peptide 0.185 nM; for inhibition at 0.00056 µM: peptide 0.56 nM; for inhibition at 0.0017 µM: peptide 1.7 nM; for inhibition at 0.005 µM: peptide 5.0 nM; for inhibition at 0.015 µM: peptide 15.0 nM
Summary of the method: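 SBE luciferase reporter HEK293 cells in 0.5% FBS medium, preincubated 20 min with peptide, then stimulated 18 h with 0.13 nM recombinant human TGF-β1. Luminescence read; inhibition scaled with maximal TGF-β signal as 0% and unstimulated as 100%.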

T1 sequence (P01137 279-390 limits assumed): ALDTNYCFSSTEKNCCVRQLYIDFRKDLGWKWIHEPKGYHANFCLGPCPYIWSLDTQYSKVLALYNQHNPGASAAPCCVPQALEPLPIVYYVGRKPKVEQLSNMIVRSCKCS

| Structure (SMILES) | Kd (recombinant human TGF-β1 [1]) [nM] | inhibition at 62 pM (recombinant human TGF-β1 [2]) [%] | inhibition at 0.000185 µM (recombinant human TGF-β1 [2]) [%] | inhibition at 0.00056 µM (recombinant human TGF-β1 [2]) [%] | inhibition at 0.0017 µM (recombinant human TGF-β1 [2]) [%] | inhibition at 0.005 µM (recombinant human TGF-β1 [2]) [%] | inhibition at 0.015 µM (recombinant human TGF-β1 [2]) [%] |
| --- | --- | --- | --- | --- | --- | --- | --- |
| CC(C)[C@@H]1NC(=O)CN(CCc2ccccc2)C(=O)[C@H](CC(=O)O)NC(=O)[C@H](CC(=O)O)NC(=O)[C@H](Cc2ccncc2)NC(=O)[C@H](C(C)C)NC(=O)[C@H](CC(N)=O)NC(=O)[C@H](CCCCNC(=O)N(C)C[C@H](O)[C@@H](O)[C@H](O)[C@H](O)CO)NC(=O)[C@H](C(C)C)NC(=O)[C@H](Cc2cccc3ccccc23)NC(=O)[C@H](Cc2ccccc2)NC(=O)CSC[C@@H](C(=O)NCC(N)=O)NC(=O)[C@H](CCCCNC(=O)N2CCN(CC(=O)O)CC2)NC(=O)[C@H](Cc2c[nH]cn2)NC(=O)[C@H](Cc2ccc(O)cc2)NC(=O)[C@H](Cc2cccc3ccccc23)NC1=O [TGFb1_020] ({CH2CO}-F[1Nal]VK([CO-Meglumine])NV[4Pal]DD[Gly(NCH2CH2Ph)]V[1Nal]YHK([CO-Piperazinyl(4-CH2COOH)])CG-NH2; thioether N-16) | 1.26 | 8.5 | 15.8 | 36.3 | 70.4 | 89.3 | 96.9 |
| CC(C)[C@@H]1NC(=O)CN(CCc2ccccc2)C(=O)[C@H](CCCCNC(=O)N2CCN(CC(=O)O)CC2)NC(=O)[C@H](CC(=O)O)NC(=O)[C@H](Cc2ccncc2)NC(=O)[C@H](C(C)C)NC(=O)[C@H](CC(N)=O)NC(=O)[C@H](C(C)C)NC(=O)[C@H](C(C)C)NC(=O)[C@H](Cc2cccc3ccccc23)NC(=O)[C@H](Cc2ccccc2)NC(=O)CSC[C@@H](C(=O)NCC(N)=O)NC(=O)[C@H](CCCCNC(=O)N2CCN(CC(=O)O)CC2)NC(=O)[C@H](Cc2c[nH]cn2)NC(=O)[C@H](Cc2ccc(O)cc2)NC(=O)[C@H](Cc2cccc3ccccc23)NC1=O [TGFb1_022] ({CH2CO}-F[1Nal]VVNV[4Pal]DK([CO-Piperazinyl(4-CH2COOH)])[Gly(NCH2CH2Ph)]V[1Nal]YHK([CO-Piperazinyl(4-CH2COOH)])CG-NH2; thioether N-16) | 0.91 | 6.49 | 20.8 | 53.8 | 85.2 | 97.1 | 99.5 |
| CC(C)[C@@H]1NC(=O)CN(CCc2ccccc2)C(=O)[C@H](CCCCNC(=O)N(C)C[C@H](O)[C@@H](O)[C@H](O)[C@H](O)CO)NC(=O)[C@H](CC(=O)O)NC(=O)[C@H](Cc2ccncc2)NC(=O)[C@H](C(C)C)NC(=O)[C@H](CC(N)=O)NC(=O)[C@H](C(C)C)NC(=O)[C@H](C(C)C)NC(=O)[C@H](Cc2cccc3ccccc23)NC(=O)[C@H](Cc2ccccc2)NC(=O)CSC[C@@H](C(=O)NCC(N)=O)NC(=O)[C@H](CCCCNC(=O)N2CCN(CC(=O)O)CC2)NC(=O)[C@H](Cc2c[nH]cn2)NC(=O)[C@H](Cc2ccc(O)cc2)NC(=O)[C@H](Cc2cccc3ccccc23)NC1=O [TGFb1_023] ({CH2CO}-F[1Nal]VVNV[4Pal]DK([CO-Meglumine])[Gly(NCH2CH2Ph)]V[1Nal]YHK([CO-Piperazinyl(4-CH2COOH)])CG-NH2; thioether N-16) | 1.04 | 8.58 | 24.4 | 49.7 | 82.3 | 96 | 99.5 |
| CC(C)[C@@H]1NC(=O)CN(CCc2ccccc2)C(=O)[C@H](CCC(=O)O)NC(=O)[C@H](CC(=O)O)NC(=O)[C@H](Cc2ccncc2)NC(=O)[C@H](C(C)C)NC(=O)[C@H](CC(N)=O)NC(=O)[C@H](CCCCNC(=O)N(C)C[C@H](O)[C@@H](O)[C@H](O)[C@H](O)CO)NC(=O)[C@H](C(C)C)NC(=O)[C@H](Cc2cccc3ccccc23)NC(=O)[C@H](Cc2ccccc2)NC(=O)CSC[C@@H](C(=O)NCC(N)=O)NC(=O)[C@H](CCCCNC(=O)N2CCN(CC(=O)O)CC2)NC(=O)[C@H](Cc2c[nH]cn2)NC(=O)[C@H](Cc2ccc(O)cc2)NC(=O)[C@H](Cc2cccc3ccccc23)NC1=O [TGFb1_024] ({CH2CO}-F[1Nal]VK([CO-Meglumine])NV[4Pal]DE[Gly(NCH2CH2Ph)]V[1Nal]YHK([CO-Piperazinyl(4-CH2COOH)])CG-NH2; thioether N-16) | 1.04 | 5.79 | 16.6 | 45 | 80.2 | 95.5 | 98.9 |
| CC(C)[C@@H]1NC(=O)CN(CCc2ccccc2)C(=O)[C@H](CCCCNC(=O)N2CCN(CC(=O)O)CC2)NC(=O)[C@H](CC(=O)O)NC(=O)[C@H](Cc2ccncc2)NC(=O)[C@H](C(C)C)NC(=O)[C@H](CC(N)=O)NC(=O)[C@H](CCCCNC(=O)N(C)C[C@H](O)[C@@H](O)[C@H](O)[C@H](O)CO)NC(=O)[C@H](C(C)C)NC(=O)[C@H](Cc2cccc3ccccc23)NC(=O)[C@H](Cc2ccccc2)NC(=O)CSC[C@@H](C(=O)NCC(N)=O)NC(=O)[C@H](CCCCNC(=O)N2CCN(CC(=O)O)CC2)NC(=O)[C@H](Cc2c[nH]cn2)NC(=O)[C@H](Cc2ccc(O)cc2)NC(=O)[C@H](Cc2cccc3ccccc23)NC1=O [TGFb1_025] ({CH2CO}-F[1Nal]VK([CO-Meglumine])NV[4Pal]DK([CO-Piperazinyl(4-CH2COOH)])[Gly(NCH2CH2Ph)]V[1Nal]YHK([CO-Piperazinyl(4-CH2COOH)])CG-NH2; thioether N-16) | 0.83 | 4.81 | 18.4 | 43.3 | 77.5 | 94.7 | 99.4 |
| CC(C)[C@@H]1NC(=O)CN(CCc2ccccc2)C(=O)[C@H](CCCCNC(=O)N(C)C[C@H](O)[C@@H](O)[C@H](O)[C@H](O)CO)NC(=O)[C@H](CC(=O)O)NC(=O)[C@H](Cc2ccncc2)NC(=O)[C@H](C(C)C)NC(=O)[C@H](CC(N)=O)NC(=O)[C@H](CCCCNC(=O)N(C)C[C@H](O)[C@@H](O)[C@H](O)[C@H](O)CO)NC(=O)[C@H](C(C)C)NC(=O)[C@H](Cc2cccc3ccccc23)NC(=O)[C@H](Cc2ccccc2)NC(=O)CSC[C@@H](C(=O)NCC(N)=O)NC(=O)[C@H](CCCCNC(=O)N2CCN(CC(=O)O)CC2)NC(=O)[C@H](Cc2c[nH]cn2)NC(=O)[C@H](Cc2ccc(O)cc2)NC(=O)[C@H](Cc2cccc3ccccc23)NC1=O [TGFb1_026] ({CH2CO}-F[1Nal]VK([CO-Meglumine])NV[4Pal]DK([CO-Meglumine])[Gly(NCH2CH2Ph)]V[1Nal]YHK([CO-Piperazinyl(4-CH2COOH)])CG-NH2; thioether N-16) | 1.03 | 6.85 | 17.8 | 41.4 | 74.3 | 93.4 | 98 |
| CC(C)[C@@H]1NC(=O)CN(CCc2ccccc2)C(=O)[C@H](CCCCNC(=O)N(C)C[C@H](O)[C@@H](O)[C@H](O)[C@H](O)CO)NC(=O)[C@H](CC(=O)O)NC(=O)[C@H](Cc2ccncc2)NC(=O)[C@H](C(C)C)NC(=O)[C@H](CC(N)=O)NC(=O)[C@H](CCCCNC(=O)N(C)C[C@H](O)[C@@H](O)[C@H](O)[C@H](O)CO)NC(=O)[C@H](C(C)C)NC(=O)[C@H](Cc2cccc3ccccc23)NC(=O)[C@H](Cc2ccccc2)NC(=O)CSC[C@@H](C(=O)NCC(N)=O)NC(=O)[C@H](CCC(=O)O)NC(=O)[C@H](Cc2c[nH]cn2)NC(=O)[C@H](Cc2ccc(O)cc2)NC(=O)[C@H](Cc2cccc3ccccc23)NC1=O [TGFb1_030] ({CH2CO}-F[1Nal]VK([CO-Meglumine])NV[4Pal]DK([CO-Meglumine])[Gly(NCH2CH2Ph)]V[1Nal]YHECG-NH2; thioether N-16) | 1.13 | 10.9 | 14.3 | 29.9 | 52.5 | 80.8 | 95.2 |
